Numbered stars: 1 amine (or outer) side, 2 acyl side, 3 side chain; on linkers, the order of the positions; unused ones are H or OH. Bridge positions count the residues as written; N and C are the ends. Square brackets hold non-standard residues; d marks the D form. I, II: the chains in the order shown. * marks the point of attachment. X2 = O=C(CCOCCOCCOCCOCCOCCOCCOCCOCCOCCOCCC(=O)[*:2])[*:1]; TATA = O=C(CC[*:1])N1CN(C(=O)CC[*:2])CN(C(=O)CC[*:3])C1; Dolaproine = CO[C@@H]([C@@H]1CCCN1)[C@@H](C)C(=O)O; Dil = CC[C@H](C)[C@H](NC)[C@@H](CC(=O)O)OC; 1Nal = N[C@@H](Cc1cccc2ccccc12)C(=O)O; X3 = O=C(CCCC(=O)[*:2])NCCC(=O)[*:1]; PABC = O=C(OCc1ccc(N[*:1])cc1)[*:2]; X1 = C[C@@H](N*)[C@@H](O)c1ccccc1; Hyp = O=C(O)[C@@H]1C[C@@H](O)CN1; Cit = NC(=O)NCCC[C@H](N)C(=O)O; NMeV = CN[C@H](C(=O)O)C(C)C; Sar = CNCC(=O)O
How the values were obtained:
[1] = Body weight monitoring in the NCI-H292 xenograft study; format: in vivo, Balb/c nude mice (Mus Musculus); conditions: 3 mpk, iv, qw
Experimental: All the procedures related to animal handling, care and the treatment in the study were performed according to the guidelines approved by the Institutional Animal Care and Use Committee (IACUC) of WuXi AppTec, following the guidance of the Association for Assessment and Accreditation of Laboratory Animal Care (AAALAC). At the time of routine monitoring, the animals were checked for any effects of tumor growth and treatments on normal behavior such as mobility, food and water consumption (by looking only), body weight gain/loss, eye/hair matting and any other abnormal effect as stated in the protocol. Death and observed clinical signs were recorded on the basis of the numbers of animals within each subset.

human Nectin-4 = molecular target: T1, human Nectin-4 (Homo sapiens, UniProt Q96NY8); experiment: Nectin-4 Biacore SPR binding assay
T1 sequence (Q96NY8 32-349): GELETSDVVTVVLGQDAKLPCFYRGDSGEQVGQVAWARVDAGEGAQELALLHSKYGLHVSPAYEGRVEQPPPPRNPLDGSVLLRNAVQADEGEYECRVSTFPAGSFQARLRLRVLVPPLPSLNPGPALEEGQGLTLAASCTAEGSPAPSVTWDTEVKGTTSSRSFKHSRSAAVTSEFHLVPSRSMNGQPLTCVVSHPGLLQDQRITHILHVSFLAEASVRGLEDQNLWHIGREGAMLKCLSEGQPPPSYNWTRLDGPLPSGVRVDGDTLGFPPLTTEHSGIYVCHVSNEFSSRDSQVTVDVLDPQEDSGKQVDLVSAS

NCI-H292 xenograft = experiment: In vivo efficacy study in NCI-H292 xenograft in Balb/c nude mice; set-up: species or system Balb/c nude mice (Mus Musculus); conditions: 3 mpk, iv
Excerpt: In Vivo Efficacy Study of BCY8244 in Treatment of NCI-H292 Xenograft in Balb/c Nude Mice
The objective of the research is to evaluate the in vivo anti-tumor efficacy of BCY8244 in treatment of NCI-H292 xenograft in Balb/c nude mice.
• Species: Mus Musculus • Strain: Balb/c nude • Age: 6-8 weeks • Sex: female • Body weight: 18-22 g • Number of animals: 43 mice plus spare • Animal supplier: Shanghai Lingchang Biotechnology Experimental Animal Co. Ltd
The NCI-H292 tumor cells were maintained in vitro as a monolayer culture in RPMI-1640 medium supplemented with 10% heat inactivated fetal bovine serum at 37° C. in an atmosphere of 5% CO2 in air. The tumor cells were routinely subcultured twice weekly by trypsin-EDTA treatment. The cells growing in an exponential growth phase were harvested and counted for tumor inoculation.
Each mouse was inoculated subcutaneously at the right flank with NCI-H292 tumor cells (10×10^6) in 0.2 ml of PBS for tumor development. 43 animals were randomized when the average tumor volume reached 168 mm^3. The test article administration and the animal numbers in each group were shown in the experimental design table.
The major endpoint was to see if the tumor growth could be delayed or mice could be cured. Tumor volume was measured three times weekly in two dimensions using a caliper, and the volume was expressed in mm^3 using the formula: V=0.5 a×b^2 where a and b are the long and short diameters of the tumor, respectively. The tumor size was then used for calculations of T/C value. The T/C value (in percent) is an indication of antitumor effectiveness; T and C are the mean volumes of the treated and control groups, respectively, on a given day. TGI was calculated for each group using the formula: TGI (%)=[1−(Ti−T0)/(Vi−V0)]×100; Ti is the average tumor volume of a treatment group on a given day, T0 is the average tumor volume of the treatment group on the day of treatment start, Vi is the average tumor volume of the vehicle control group on the same day with Ti and V0 is the average tumor volume of the vehicle group on the day of treatment start.
Summary statistics, including mean and the standard error of the mean (SEM), were provided for the tumor volume of each group at each time point.
Statistical analysis of difference in tumor volume among the groups was conducted on the data obtained at the best therapeutic time point after the final dose.
A t-test was performed to compare tumor volume among groups, […]. All data were analyzed using GraphPad Prism 5.0. P<0.05 was considered to be statistically significant.
Tumor growth inhibition rate for test articles in the NCI-H292 xenograft model was calculated based on tumor volume measurements at day 14 after the start of treatment.

[2] = molecular target: Human Nectin-4 (residues Gly32-Ser349; NCBI RefSeq: NP_112178.2) with C-terminal FLAG tag, biotinylated (human) (UniProt Q96NY8); experiment: SPR (Biacore 3000), biotinylated Nectin-4 captured on streptavidin CM5 chip, peptide as analyte
[3] = molecular target: Human Nectin-4 (residues Gly32-Ser349; NCBI RefSeq: NP_112178.2) with C-terminal FLAG tag, biotinylated (human) (UniProt Q96NY8); experiment: SPR binding assay, against BCY8126 as reference

**Q.** With “I: [Sar][Sar][Sar][Sar][Sar][Sar][Sar][Sar][Sar][Sar]CP[1Nal][dD]CMKDWSTP[Hyp]WC-NH2 / II: [Sar][Sar][Sar][Sar][Sar][Sar][Sar][Sar][Sar][Sar]CP[1Nal][dD]CMKDWSTP[Hyp]WC-NH2 / III: V[Cit][PABC][NMeV]V[Dil][Dolaproine]-X1 / IV: V[Cit][PABC][NMeV]V[Dil][Dolaproine]-X1 (linker I:11-I:15-I:25, II:11-II:15-II:25 via TATA; linker I:17-II:17 via X2; linker I:N-III:N, II:N-IV:N via X3; C-terminus assumed) [BCY8244]” as the substance, how does the “body weight” value [1] read?
**A.** maintained the bodyweight well

**Q.** And the Kd (human Nectin-4)?
**A.** 425 pM

**Q.** And the “binding in the SPR binding assay” value (human Nectin-4)?
**A.** good levels of binding

**Q.** What about the kd (human Nectin-4; Biacore SPR, biotinylated human Nectin-4, 25° C.) of the same substance?
**A.** 0.000319 s⁻¹

**Q.** And the “fold greater binding activity in the SPR binding assay than monomeric BCY8126” value (human Nectin-4; homo-tandem versus monomer)?
**A.** 3.5 fold

**Q.** What about the kon (human Nectin-4; read-out: ka) of the same substance?
**A.** 750000 M⁻¹ s⁻¹

**Q.** And the “tumor inhibitory effect” value (NCI-H292 xenograft; NCI-H292 xenograft, qw, 3 mg/kg)?
**A.** excellent levels of tumor inhibitory effect and regressed the tumors potently

**Q.** And the “Tumor volume (mean ± SEM)” value (NCI-H292 xenograft; day 0 after the start of treatment, qw)?
**A.** 168 ± 20 mm^3

**Q.** And the “Tumor volume (mean ± SEM)” value (NCI-H292 xenograft; day 2 after the start of treatment, qw)?
**A.** 187 ± 20 mm^3

**Q.** What about the “Tumor volume (mean ± SEM)” value (NCI-H292 xenograft; day 4 after the start of treatment, qw) of the same substance?
**A.** 180 ± 48 mm^3

**Q.** And the “Tumor volume (mean ± SEM)” value (NCI-H292 xenograft; day 7 after the start of treatment, qw)?
**A.** 155 ± 33 mm^3

**Q.** What about the “Tumor volume (mean ± SEM)” value (NCI-H292 xenograft; day 9 after the start of treatment, qw) of the same substance?
**A.** 141 ± 29 mm^3

**Q.** And the “Tumor volume (mean ± SEM)” value (NCI-H292 xenograft; day 11 after the start of treatment, qw)?
**A.** 96 ± 23 mm^3

**Q.** What about the TGI (NCI-H292 xenograft; day 14, qw) of the same substance?
**A.** 109.0%

**Q.** And the “Tumor volume (mean ± SEM)” value (NCI-H292 xenograft; day 14, qw (Table 5))?
**A.** 108 ± 15 mm^3

**Q.** What about the T/C (NCI-H292 xenograft; day 14, qw, treated/control mean tumor volume) of the same substance?
**A.** 12.8%

**Q.** What about the “Tumor volume (mean ± SEM)” value (NCI-H292 xenograft; day 14 after the start of treatment, qw (Table 4)) of the same substance?
**A.** 108 ± 15 mm^3

**Q.** For BCY8126 (Nectin-4 monomer) (peptide), which Kd [2] is on record?
**A.** 1460 pM

**Q.** What about the koff [2] of the same substance?
**A.** 0.000969 s⁻¹

**Q.** What about the kon [2] of the same substance?
**A.** 662000 M⁻¹ s⁻¹

**Q.** Which results are given for “BCY8244 (Nectin-4 homo-tandem), BDC of formula (A) (peptide)”?
**A.** fold greater binding activity than BCY8126 [3]: 3.5 fold; koff [2]: 0.000319 s⁻¹

Reference: patent US20240173422A1, “BICYCLIC PEPTIDE LIGAND DRUG CONJUGATES” (BICYCLETX LIMITED, priority 2019, published 2024)
